Reference: patent publication US10450260B2, “NO- and H2S-releasing compounds” (RESEARCH FOUNDATION OF THE CITY UNIVERSITY OF NEW YORK, priority 2011, dated 2019)
Like-named read-outs stand apart in the source and are kept apart here.

Legend:
Assay type in all cases: cell-based
[1] = tested on: HT-29 human colon cancer cells; assay: MTT cell growth inhibition, HT-29; settings: for IC50: Homo sapiens; for Ratio NSAID/NOSH-NSAID, HT-29: fold-enhancement in potency over the parent compound
Procedure: HT-29, SW-480 and HCT-15 human colon adenocarcinoma, MIA PaCa-2 and BxPC-3 human pancreatic cancer, LNCAP human prostate cancer, A549 human lung cancer, MCF-7 (estrogen receptor positive), MDA-MB 231 and SK-BR-3 (estrogen receptor negative) human breast cancer, and Jurkats human leukemia cell lines were obtained from American Type Tissue Collection (Manassas, Va.). All cells lines were grown as monolayers except for the Jurkats which were grown in suspension. The pancreatic and breast cancer cells were grown in Dulbecco's modified Eagle's medium, the prostate, Jurkat, SW-480 and HCT-15 colon cells were grown in RPMI 1640 medium, the lung cells were grown in F-12 and the colon HT-29 cells were grown in McCoy 5A. All media were supplemented with 10% fetal calf serum (Invitrogen, Carlsbad, Calif.) penicillin (50 U/ml), and streptomycin (50 μg/ml) (Invitrogen, Carlsbad, Calif.). Cells were seeded on culture dishes at a density of 25×10^3 cells/cm^2 and incubated at 37° C. in 5% CO2 and 90% relative humidity. Single cell suspensions were obtained by trypsinization (0.05% trypsin/EDTA), and cells were counted using a hemocytometer. Viability was determined by the trypan blue dye exclusion method.
(§1) Cell growth inhibitory effect of NOSH compounds were measured using a colorimetric MTT assay kit (Roche, Indianapolis, Ind.). Cancer cells were plated in 96-well plates at a density of 50,000 cells/well. The cells were incubated for 24 h with different concentrations of NOSH compounds. After the indicated time, 10 μl of MTT dye (3-[4,5-dimethylthiazol-2-yl]-2,5-diphenyl tetrazolium bromide, 5 mg/ml in phosphate buffered saline), was added to each well, and the plates were incubated for 2 hours at 37° C. Then, the media was aspirated, and add 100 μl of the solubilization solution (10% SDS in 0.01 M HCl) was added to each well to solubilize the formant crystals. The absorbance of the plates was measured on an ELISA reader at a wavelength of 570 nm. Each sample was performed in triplicate, and the entire experiment was repeated three times.
HT-29 human colon cancer cells were obtained from American Type Tissue Collection (Manassas, Va.) and grown as monolayer in McCoy 5A media that was supplemented with 10% fetal calf serum (Invitrogen, Carlsbad, Ca.), penicillin (50 U/ml), and streptomycin (50 μg/ml) (Invitrogen, Carlsbad, Calif.).
Growth inhibition was measured using a colorimetric MTT assay kit (Roche, Indianapolis, Ind.). Proliferation (PCNA) was assessed using an ELISA kit from Calbiochem, (La Jolla, Calif.). Cell cycle phase distributions and apoptosis of control and treated cells were determined as previously described. All methods are described in Chattopadhyay et al., Biochemical Pharmacology, 2012, 83(6), 715-722.
HT-29, SW-480 and HCT-15 human colon adenocarcinoma, MIA PaCa-2 and BxPC-3 human pancreatic cancer, LNCAP human prostate cancer, A549 and H383 human lung cancer, MCF-7, MDA-MB 231 and SK-BR-3 human breast cancer and Jurkat T cell human leukemia cell lines were obtained from American Type Tissue Collection (Manassas, Va.) All cells lines were grown as monolayers except for the Jurkat T cells which were grown as suspension culture. The pancreatic and breast cancer cells were grown in Dulbecco's modified Eagle's medium, the prostate, Jurkat, SW-480 and HCT-15 colon cells were grown in RPMI 1640 medium, the lung cells were grown in F-12 and the colon HT-29 cells were grown in McCoy 5A. All media were supplemented with 10% fetal calf serum (Invitrogen, Carlsbad, Calif.) penicillin (50 U/ml), and streptomycin (50 μg/ml) (Invitrogen, Carlsbad, Calif.). Cells were seeded on culture dishes at a density of 25×10^3 cells/cm^2 and incubated at 37° C. in 5% CO2 and 90% relative humidity. Single cell suspensions were obtained by trypsinization (0.05% trypsin/EDTA), and cells were counted using a hemacytometer. The final DMSO concentration was adjusted in all media to 1%. Viability was determined by the trypan blue dye exclusion method. […]

[2] = tested on: SW-480 human colon adenocarcinoma; assay: MTT cell growth inhibition, SW480; settings: for IC50: Homo sapiens, SW480; for Ratio NSAID/NOSH-NSAID, SW480: fold-enhancement in potency over the parent compound
Procedure: (§2) All cells lines were grown as monolayers except for the Jurkats which were grown in suspension. […] All media were supplemented with 10% fetal calf serum (Invitrogen, Carlsbad, Calif.) penicillin (50 U/ml), and streptomycin (50 μg/ml) (Invitrogen, Carlsbad, Calif.). Cells were seeded on culture dishes at a density of 25×10^3 cells/cm^2 and incubated at 37° C. in 5% CO2 and 90% relative humidity. Single cell suspensions were obtained by trypsinization (0.05% trypsin/EDTA), and cells were counted using a hemocytometer. Viability was determined by the trypan blue dye exclusion method.
as §1
(§3) All media were supplemented with 10% fetal calf serum (Invitrogen, Carlsbad, Calif.) penicillin (50 U/ml), and streptomycin (50 μg/ml) (Invitrogen, Carlsbad, Calif.). Cells were seeded on culture dishes at a density of 25×10^3 cells/cm^2 and incubated at 37° C. in 5% CO2 and 90% relative humidity. Single cell suspensions were obtained by trypsinization (0.05% trypsin/EDTA), and cells were counted using a hemacytometer. The final DMSO concentration was adjusted in all media to 1%. Viability was determined by the trypan blue dye exclusion method.
(§4) Cell growth inhibitory effect of all NOSH-NSAIDs was measured using a colorimetric MTT assay kit (Roche, Indianapolis, Ind.). Cancer cells were plated in 96-well plates at a density of 30,000-50,000 cells/well depending on cell type. The cells were incubated for 24 hours with different concentrations of NOSH-NSAIDs. After the indicated time, 10 μL of MTT dye (3-[4,5-dimethylthiazol-2-yl]-2,5-diphenyl tetrazolium bromide, 5 mg/mL in phosphate buffered saline), was added to each well, and the plates were incubated for 2 hours at 37° C. Then, the media was aspirated, and 100 μL of the solubilization solution (10% SDS in 0.01 M HCl) was added to each well to solubilize the formant crystals. The absorbance of the plates was measured on a spectrophotometric plate reader at a wavelength of 570 nm. Each experiment was performed in triplicate, and the entire experiment was repeated three times.

[3] = tested on: HCT-15 human colon adenocarcinoma; assay: MTT cell growth inhibition, HCT15; settings: for IC50: Homo sapiens, HCT-15; for Ratio NSAID/NOSH-NSAID, HCT15: fold-enhancement in potency over the parent compound
Procedure: as §2, §1, §3, §4

[4] = HT-29, 24 h (Table 5), in combinations the IC50 of ASA with fixed concentrations of SNAP and/or ADT-OH, read-out: IC50 at 24 hours for HT-29 cell growth inhibition
[5] = HT-29 cells, 24 h, read-out: IC50, 24 h
[6] = HT-29 colon cancer cells, 24 hours (Table 3), read-out: IC50 at 24 hours for cell growth inhibition
[7] = HT-29, 24 hours, read-out: IC50 for cell growth inhibition, Colon HT-29
[8] = HT-29, 24 hours (Table 7), read-out: IC50 for cell growth inhibition, Colon HT-29

Row | SMILES | IC50 ([2]; 24 hours) [µM] | IC50 [1, 7] [µM] | IC50 ([3]; 24 hours) [µM] | IC50 ([2]; 24 hours (Table 7)) [µM] | IC50 [1, 8] [µM] | IC50 ([3]; 24 hours (Table 7)) [µM] | also measured
1 | CC(=O)Oc1ccccc1C(=O)O [ASA, aspirin, reference compound] | – | – | – | – | – | – | IC50 [1, 4]: > 1000 µM; IC50 [1, 5]: > 5000 µM; IC50 [1, 6]: > 5000 µM
2 | O=C(CCCO[N+](=O)[O-])Oc1ccccc1C(=O)Oc1ccc(-c2cc(=S)ss2)cc1 [NOSH-1, 4-(3-thioxo-3H-1,2-dithiol-5-yl)phenyl 2-((4-(nitrooxy)butanoyl)oxy)benzoate] | 0.06 ± 0.004 | 0.048 ± 0.003 | 0.05 ± 0.005 | – | – | – | potency of intact NOSH-1 over the combination ASA plus SNAP and ADT-OH ([1]; HT-29, 24 h): approximately 9000 fold; Potency enhancement (ratio of IC50 values ASA/NOSH-1), 24 h ([1]; HT-29 cells, 24 h): >100,000 fold; IC50 [1, 4]: 0.05 ± 0.005 µM; IC50 [1, 5]: 0.0455 ± 0.0025 µM; IC50 [1, 6]: 0.05 ± 0.003 µM
3 | O=C(CCC(=O)Oc1ccccc1C(=O)Oc1ccc(-c2cc(=S)ss2)cc1)OCCCCO[N+](=O)[O-] [NOSH-2, 4-(nitrooxy)butyl (2-((4-(3-thioxo-3H-1,2-dithiol-5-yl)phenoxy)carbonyl)phenyl) succinate] | 0.097 ± 0.007 | 0.08 ± 0.005 | 0.09 ± 0.006 | – | – | – | –
4 | NC(=S)c1ccc(OC(=O)c2ccccc2OC(=O)CCCO[N+](=O)[O-])cc1 [NOSH-3, 4-carbamothioylphenyl 2-((4-(nitrooxy)butanoyl)-oxy)benzoate] | 5.3 ± 0.24 | 7.5 ± 0.355 | 5.9 ± 0.305 | – | – | – | –
5 | O=C(CCCC[C@@H]1CCSS1)Oc1ccccc1C(=O)OCCCCO[N+](=O)[O-] [NOSH-4, (R)-4-(nitrooxy)butyl 2-((5-(1,2-dithiolan-3-yl)pentanoyl)oxy)benzoate] | 0.6 ± 0.025 | 0.3 ± 0.035 | 0.52 ± 0.021 | – | – | – | –
6 | CC(C(=O)Oc1ccc(-c2cc(=S)ss2)cc1)c1ccc2cc(OC(=O)CCCO[N+](=O)[O-])ccc2c1 (stereo not drawn) [NOSH-7, 6-(1-oxo-1-(4-(3-thioxo-3H-1,2-dithiol-5-yl)phenoxy)propan-2-yl)naphthalen-2-yl 4-(nitrooxy)butanoate] | – | – | – | 0.098 | 0.08 | 0.1 | Ratio NSAID/NOSH-NSAID, SW480 [2]: 31,734; Ratio NSAID/NOSH-NSAID, HT-29 [1]: 34,687; Ratio NSAID/NOSH-NSAID, HCT15 [3]: 28,500
7 | CC1=C(CC(=O)Oc2ccc(OC(=O)CCCO[N+](=O)[O-])c(C(=O)Oc3ccc(-c4cc(=S)ss4)cc3)c2)c2cc(F)ccc2/C1=C/c1ccc([S+](C)[O-])cc1 (stereo not drawn) [NOSH-8, (E)-4-(3-thioxo-3H-1,2-dithiol-5-yl)phenyl 5-(2-(5-fluoro-2-methyl-1-(4-(methylsulfinyl)benzylidene)-1H-inden-3-yl)acetoxy)-2-((4-(nitrooxy)butanoyl)oxy)benzoate] | – | – | – | 0.11 | 0.089 | 0.11 | Ratio NSAID/NOSH-NSAID, SW480 [2]: 6,454; Ratio NSAID/NOSH-NSAID, HT-29 [1]: 8,988; Ratio NSAID/NOSH-NSAID, HCT15 [3]: 7,727
8 | COc1ccc2cc([C@H](C)C(=O)O)ccc2c1 [naproxen, reference compound] | – | – | – | – | 2780 | – | –
9 | CC1=C(CC(=O)O)c2cc(F)ccc2/C1=C\c1ccc([S+](C)[O-])cc1 (stereo not drawn) [sulindac, reference compound] | – | – | – | 710 | 800 | 850 | –
